Test system: Metallothionein 2A (MT2A) mRNA
Test: Stimulation of Metallothioneins: MT2A mRNA in normal human dermal fibroblasts (QuantiGene multiplex branched DNA assay)
Assay type: cell-based
Settings: 24 hours, vs ethanol vehicle control, p<0.05
Protocol: Normal human dermal fibroblasts were cultured in 96 well tissue culture treated plates, containing appropriate culture medium. Stock solution of cis-6 nonenol was made in ethanol. Cells were treated with test material or ethanol vehicle control diluted in growth medium for 24 hours in a humidified 37° C. incubator with 10% CO2. After incubation, growth medium from each plate was removed and 100 μl of lysis buffer was added to the wells and placed in 37° C. incubator with 10% CO2 for 30 minutes. At the end of incubation, the cells were collected in freezer plates and placed in −80° C. freezer, until analysis. Changes in mRNA for Metallothionein 2A (MT2A) after treatment were analysed using Panomics' QuantiGene® multiplex assay that employs a branched DNA technology. Percent increase in mRNA for MT2A was calculated by comparing the test results to that of the vehicle control. […] All results reported are statistically significant at p<0.05.

CC/C=C\CCCCCO [Cis-6-nonenol, cis-6-nonenol]
stimulation in mRNA levels for Metallothionein 2A (0.001% cis-6-nonenol): 97% | stimulation in mRNA levels for Metallothionein 2A (0.01% cis-6-nonenol): 96%

From US8128914B2, “Topical compositions containing CIS-6-nonenol and its derivatives and methods for treating skin” (Avon Products, Inc, priority 2008, dated 2012)
